Like-named read-outs stand apart in the source and are kept apart here. Numbered stars: 1 amine (or outer) side, 2 acyl side, 3 side chain; on linkers, the order of the positions; unused ones are H or OH. Side chains are listed from the residue outwards. Peptide text beside a SMILES is read from it. * marks the point of attachment. Daunorubicin = COc1cccc2c1C(=O)c1c(O)c3c(c(O)c1C2=O)C[C@@](O)(C(C)=O)C[C@@H]3O[C@H]1C[C@H](N*)[C@H](O)[C@H](C)O1; 1Pyrenoyl = O=C(c1ccc2ccc3cccc4ccc1c2c34)*; Suc = O=C(CCC(=O)[*:2])[*:1]
Legend:
MDA-MB-231 cells [1] = assay: In vitro cytostatic activity, Alamar-blue assay; format: cell-based, human; conditions: 3 h treatment, then 3 days in serum-containing medium, four parallels, two independent experiments, read-out: IC50 ± SD, cytostatic activity
Protocol: The in vitro measurements were carried out on 96-well plates containing 5 × 10^3 MDA-MB-231 cells per well. The cells were incubated for 24 h at 37 °C. The measurement started with treating these cells with the solutions of compounds for 3 h, where the final volume was 200 μL. The cytostatic activity was measured on a broad spectrum of concentrations between 0.000128 and 100 μM. Serum-free medium was used on cells for 3 h at 37 °C as control. After treatment, the compounds were washed out using a serum-free medium twice. The cells were then cultured for 72 h in a medium with serum. Alamar-blue (Resazurim) assay was used to determine the ratio of live cells and thus the IC50. Briefly, Alamar-blue solution (22.5 μL, 0.15 mg/mL in PBS (pH = 7)) was added to the cells. Synergy H4 multimode microplate reader (BioTek, Winooski, VT, USA) was used to determine the fluorescence (at λ = 530/30 nm and 610/10 nm) after 4 h incubation. Cytostasis was calculated as Cytostatic effect (%) = [1 − (ODtreated/ODcontrol)] × 100; where ODtreated and ODcontrol correspond to the optical densities of the treated and untreated cells, respectively. […] The curves were defined using MicrocalTM Origin (version 8.0, OriginLab, Northampton, MA, USA) software: cytostasis was plotted as a function of concentration, fitted to a sigmoidal curve, and the IC50 value was determined. […]

MDA-MB-231 cells [2] = assay: Intracellular localization by confocal laser scanning microscopy; format: cell-based, human; conditions: MDA-MB-231, 5 μM, 15, 45 and 90 min; CLSM
MDA-MB-231 cells [3] = conditions: ref [31], read-out: IC50, cytostatic activity; cited from earlier work
Excerpt: Table 2 The cytostatic activity of peptide-drug conjugates on MDA-MB-231. | column: IC50 ± SD (µM) * / MDA-MB-231

Molecule	IC50 (MDA-MB-231 cells [1]) [µM]	other results
COc1cccc2c1C(=O)c1c(O)c3c(c(O)c1C2=O)C[C@@](O)(C(C)=O)C[C@@H]3O[C@H]1C[C@H](NC(=O)CCC(=O)N[C@@H](CCCNC(=N)N)C(=O)N[C@@H](CCCNC(=N)N)C(=O)N[C@@H](CCCNC(=N)N)C(=O)N[C@@H](CCCNC(=N)N)C(=O)N[C@@H](CCCNC(=N)N)C(=O)N[C@@H](CCCNC(=N)N)C(=O)N[C@@H](CCCNC(=N)N)C(=O)N[C@@H](CCCNC(=N)N)C(=O)N[C@@H](CCCCNC(=O)c2ccc3ccc4cccc5ccc2c3c45)C(N)=O)[C@H](O)[C@H](C)O1 [DauSuc-Arg8-Lys(PCA)]	23.7 ± 4.3	–
COc1cccc2c1C(=O)c1c(O)c3c(c(O)c1C2=O)C[C@@](O)(C(C)=O)C[C@@H]3O[C@H]1C[C@H](NC(=O)CCC(=O)NCCCC[C@H](NC(=O)[C@H](CCCNC(=N)N)NC(=O)[C@H](CCCNC(=N)N)NC(=O)[C@H](CCCNC(=N)N)NC(=O)[C@H](CCCNC(=N)N)NC(=O)[C@H](Cc2c[nH]c3ccccc23)NC(=O)c2ccc3ccc4cccc5ccc2c3c45)C(N)=O)[C@H](O)[C@H](C)O1 [PCA-Trp-Arg4-Lys(DauSuc)] (1Pyrenoyl-WRRRRK([Suc-Daunorubicin])-NH2)	–	Internalization of DauSuc conjugates (Dau fluorescence) (MDA-MB-231 cells [2]): very efficient internalization
COc1cccc2c1C(=O)c1c(O)c3c(c(O)c1C2=O)C[C@@](O)(C(C)=O)C[C@@H]3O[C@H]1C[C@H](NC(=O)CCC(=O)NCCCC[C@H](NC(=O)[C@H](CCCNC(=N)N)NC(=O)[C@H](CCCNC(=N)N)NC(=O)[C@H](CCCNC(=N)N)NC(=O)[C@H](CCCNC(=N)N)NC(=O)[C@H](CCCNC(=N)N)NC(=O)[C@H](CCCNC(=N)N)NC(=O)[C@H](CCCNC(=N)N)NC(=O)[C@H](CCCNC(=N)N)NC(=O)c2ccc3ccc4cccc5ccc2c3c45)C(N)=O)[C@H](O)[C@H](C)O1 [PCA-Arg8-Lys(DauSuc)]	28.1 ± 7.5	–
succinylated daunomycin [DauSuc]	–	IC50 (MDA-MB-231 cells [3]): > 100 µM

Source: article PMC11900394, “1-Pyrene Carboxylic Acid: An Internalization Enhancer for Short Oligoarginines” (International Journal of Molecular Sciences, 2025)
